Experimental data: PubChem BioAssay (NCI)
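Assay format: 96-well plates, 48-hour exposure. TGI marks complete inhibition of growth.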

Legend:
Experiment in all cases: NCI tumour cell line growth inhibition, 48 h
786-0 renal = system: 786-0 renal
A498 renal = system: A498 renal
A549 NSCLC = system: A549 NSCLC
ACHN renal = system: ACHN renal
CAKI-1 renal = system: CAKI-1 renal
CCRF-CEM leukemia = system: CCRF-CEM leukemia
COLO 205 colon = system: COLO 205 colon
DU-145 prostate = system: DU-145 prostate
EKVX NSCLC = system: EKVX NSCLC
HCC-2998 colon = system: HCC-2998 colon
HCT-116 colon = system: HCT-116 colon
HCT-15 colon = system: HCT-15 colon
HL-60(TB) leukemia = system: HL-60(TB) leukemia
HOP-62 NSCLC = system: HOP-62 NSCLC
HOP-92 NSCLC = system: HOP-92 NSCLC
HS 578T breast = system: HS 578T breast
HT29 colon = system: HT29 colon
IGROV1 ovarian = system: IGROV1 ovarian
K-562 leukemia = system: K-562 leukemia
KM12 colon = system: KM12 colon
LOX IMVI melanoma = system: LOX IMVI melanoma
M14 melanoma = system: M14 melanoma
MALME-3M melanoma = system: MALME-3M melanoma
MCF7 breast = system: MCF7 breast
MDA-MB-231 breast = system: MDA-MB-231 breast
MDA-MB-435 = system: MDA-MB-435
MDA-N = system: MDA-N
MOLT-4 leukemia = system: MOLT-4 leukemia
NCI-H226 lung = system: NCI-H226 lung
NCI-H23 lung = system: NCI-H23 lung
NCI-H460 lung = system: NCI-H460 lung
NCI-H522 lung = system: NCI-H522 lung
OVCAR-3 ovarian = system: OVCAR-3 ovarian
OVCAR-4 ovarian = system: OVCAR-4 ovarian
OVCAR-5 ovarian = system: OVCAR-5 ovarian
OVCAR-8 ovarian = system: OVCAR-8 ovarian
PC-3 prostate = system: PC-3 prostate
RPMI-8226 leukemia = system: RPMI-8226 leukemia
RXF 393 renal = system: RXF 393 renal
SF-268 CNS = system: SF-268 CNS
SF-295 CNS = system: SF-295 CNS
SF-539 CNS = system: SF-539 CNS
SK-MEL-2 melanoma = system: SK-MEL-2 melanoma
SK-MEL-28 melanoma = system: SK-MEL-28 melanoma
SK-MEL-5 melanoma = system: SK-MEL-5 melanoma
SK-OV-3 ovarian = system: SK-OV-3 ovarian
SN12C renal = system: SN12C renal
SNB-19 CNS = system: SNB-19 CNS
SNB-75 CNS = system: SNB-75 CNS
SW-620 colon = system: SW-620 colon
T-47D breast = system: T-47D breast
TK-10 renal = system: TK-10 renal
U251 CNS = system: U251 CNS
UACC-257 melanoma = system: UACC-257 melanoma
UACC-62 melanoma = system: UACC-62 melanoma
UO-31 renal = system: UO-31 renal

## C=C(CN(C)C)C1(c2ccccc2)CC2(CCCC2)C(=O)O1 (stereo unspecified)
786-0 renal
  TGI: > 100 µM
A498 renal
  TGI: > 100 µM
A549 NSCLC
  TGI: > 100 µM
ACHN renal
  TGI: > 100 µM
CAKI-1 renal
  TGI: > 100 µM
CCRF-CEM leukemia
  TGI: 53.4 µM
COLO 205 colon
  TGI: 74.7 µM
DU-145 prostate
  TGI: > 100 µM
EKVX NSCLC
  TGI: > 100 µM
HCC-2998 colon
  TGI: > 100 µM
HCT-116 colon
  TGI: > 100 µM
HCT-15 colon
  TGI: > 100 µM
HL-60(TB) leukemia
  TGI: 53.8 µM
HOP-62 NSCLC
  TGI: > 100 µM
HOP-92 NSCLC
  TGI: 56.1 µM
HS 578T breast
  TGI: > 100 µM
HT29 colon
  TGI: 74.7 µM
IGROV1 ovarian
  TGI: > 100 µM
K-562 leukemia
  TGI: > 100 µM
KM12 colon
  TGI: > 100 µM
LOX IMVI melanoma
  TGI: > 100 µM
M14 melanoma
  TGI: > 100 µM
MALME-3M melanoma
  TGI: > 100 µM
MCF7 breast
  TGI: > 100 µM
MDA-MB-231 breast
  TGI: > 100 µM
MDA-MB-435
  TGI: > 100 µM
MDA-N
  TGI: > 100 µM
MOLT-4 leukemia
  TGI: 78.1 µM
NCI-H226 lung
  TGI: > 100 µM
NCI-H23 lung
  TGI: 82.4 µM
NCI-H460 lung
  TGI: > 100 µM
NCI-H522 lung
  TGI: 47.5 µM
OVCAR-3 ovarian
  TGI: > 100 µM
OVCAR-4 ovarian
  TGI: > 100 µM
OVCAR-5 ovarian
  TGI: > 100 µM
OVCAR-8 ovarian
  TGI: > 100 µM
PC-3 prostate
  TGI: > 100 µM
RPMI-8226 leukemia
  TGI: > 100 µM
RXF 393 renal
  TGI: > 100 µM
SF-268 CNS
  TGI: > 100 µM
SF-295 CNS
  TGI: > 100 µM
SF-539 CNS
  TGI: > 100 µM
SK-MEL-2 melanoma
  TGI: > 100 µM
SK-MEL-28 melanoma
  TGI: > 100 µM
SK-MEL-5 melanoma
  TGI: > 100 µM
SK-OV-3 ovarian
  TGI: > 100 µM
SN12C renal
  TGI: > 100 µM
SNB-19 CNS
  TGI: > 100 µM
SNB-75 CNS
  TGI: > 100 µM
SW-620 colon
  TGI: > 100 µM
T-47D breast
  TGI: > 100 µM
TK-10 renal
  TGI: > 100 µM
U251 CNS
  TGI: > 100 µM
UACC-257 melanoma
  TGI: > 100 µM
UACC-62 melanoma
  TGI: > 100 µM
UO-31 renal
  TGI: 62.9 µM
